Experimental data taken from US12678518B2, “Theranostic probe and its use for targeting and/or labeling the EGFR kinase and/or the cells expressing EGFR or its family members” (Tianjin University, priority 2019, dated 2026).

How the values were obtained:
EGFR V924R = molecular target: T1, EGFR V924R (Homo sapiens, UniProt P00533, V948R); assay: Flowcytometry of PDCy3 binding to cells expressing EGFR V924R mutant; type: cell-based; settings: 1 μM PDCy3
T1 construct: plasmids encoding human EGFR (1-988) and split YFP fragments; expressed in transfected cells; host or cells: HEK 293T
Procedure: (§1) Cell sorting. Following starvation in EX-Cell 293 Serum-Free Medium for 44 hours, transfected cells were treated with gefitinib, PDCy3, or EGF for 4 hours at 37° C. Then, the cells were washed twice with 500 μl/well ice-cold PBS, and were re-suspended in 400 μl/well PBS. The final cell density was estimated to be 5×10^5˜1×10^6 cells/ml. To detect EGFR expression, 3 μd anti-EGFR 528 antibody (santa cruz biotechnology inc, USA) at 200 μg/ml concentration was added to each well of re-suspended cells. After 30-minute incubation on ice, cells were washed twice with 500 μl/well PBS, and were re-suspended in […]. Then, 0.3 μl FITC-labelled secondary antibody at a concentration of 2 mg/ml was added to each sample. After incubation on ice for 30 minutes, cells were washed three times with PBS, re-suspended in 400 μl/well PBS, and analyzed by flowcytometry using a BD FACS Calibur machine.
(§2) Cell sorting. Following starvation in EX-Cell 293 Serum-Free Medium for 44 hours, transfected cells were treated with gefitinib, PDCy3, or EGF for 4 hours at 37° C. Then, the cells were washed twice with 500 μL/well ice-cold PBS, and were re-suspended in 400 μL/well PBS. The final cell density was estimated to be 5×10^5˜1×10^6 cells/mL. […] After incubation on ice for 30 minutes, cells were washed three times with PBS, re-suspended in 400 μL/well PBS, and analyzed by floweytometry using a BD FACS Calibur machine.

EGFR L834R = molecular target: T2, EGFR L834R (Homo sapiens, UniProt P00533, L858R); assay: Flowcytometry of PDCy3 binding to cells expressing EGFR L834R mutant; type: cell-based; settings: L834R mutation, 1 μM PDCy3
T2 construct: plasmids encoding human EGFR (1-988) and split YFP fragments; expressed in transfected cells; host or cells: HEK 293T
Procedure: as §1, §2

[1] = test system: mock transfected / EGFR-negative HEK293T cells; assay: Flowcytometry of PDCy3 labelling of EGFR negative and mock transfected cells (specificity); type: cell-based
Procedure: as §1
To extend the application of PDCy3 probe in a diagnosis-related setting, we optimized the labelling conditions so that the cells with over-expressed EGFR could be more specifically labelled with the probe. We compared the efficiencies in labelling EGFR over-expressed cells versus those non-over-expressed cells under different PDCy3 concentrations (FIG. 3A). […] Under this condition, over 84.9% EGFR positive cells could be labeled by this probe. In comparison, 6.7% EGFR negative cells and 1.4% mock transfected cells were labelled by PDCy3 probe at the same condition. However, when the concentration of PDCy3 was increased to […] or higher, mock transfected cells or transfected, EGFR-negative cells were getting to be labelled non-specifically.
Cell sorting. Following starvation in EX-Cell 293 Serum-Free Medium for 44 hours, transfected cells were treated with gefitinib, PDCy3, or EGF for 4 hours at 37° C. Then, the cells were washed twice with 500 μL/well ice-cold PBS, and were re-suspended in 400 μL/well PBS. The final cell density was estimated to be 5×10^5˜1×10^6 cells/mL. To detect EGFR expression, 3 μL anti-EGFR 528 antibody (Santa Cruz Biotechnology Inc, USA) at 200 μg/mL concentration was added to each well of re-suspended cells. After 30-minute incubation on ice, cells were washed twice with 500 μL/well PBS, and were re-suspended in 400 μL PBS. Then, 0.3 μL FITC-labelled secondary antibody at a concentration of 2 mg/mL was added to each sample. After incubation on ice for 30 minutes, cells were washed three times with PBS, re-suspended in 400 μL/well PBS, and analyzed by floweytometry using a BD FACS Calibur machine.
To characterize the specificity of PDCy3, we compared the efficiencies in labelling EGFR over-expressed cells versus those non-over-expressed cells under different PDCy3 concentrations (FIG. 3A). […]

EGFR = EGFR (Homo sapiens, UniProt P00533); assay: Inhibition of the EGF receptor kinase activity (EGFR phosphorylation, western blotting); settings: EGFR-transfected HEK293T cells, 10 minutes
Procedure: Inhibition of the EGF receptor kinase activity. […] Treated cells were lysed by mixing with 40 μl/well lysis buffer (50 mM Tris, pH 7.5, 150 mM NaCl, 1% TritonX-100, 1% sodium deoxycholate, 0.1% SDS, 10 mM EDTA, 1 mM Na3VO4, 2 mM PMSF). […] The supernatants were mixed with 6×SDS sample buffer, and were subjected to SDS-PAGE and Western blotting analysis. The expression and phosphorylation levels of EGFR were detected by 4G10 and anti-Protein C antibodies, respectively, in western blotting.
In the assay, EGFR-transfected HEK293T cells were treated with the PDCy3 probe at different concentrations for 10 minutes in the presence and absence of 10 nM EGF. The expression and phosphorylation levels of the EGF receptor were detected and analyzed by western blotting.
Inhibition of the EGF receptor kinase activity. […] Treated cells were lysed by mixing with 40 μL/well lysis buffer (50 mM Tris, pH 7.5, 150 mM NaCl, 1% Triton X-100, 1% sodium deoxycholate, 0.1% SDS, 10 mM EDTA, 1 mM Na3VO4, 2 mM PMSF). […] The expression and phosphorylation levels of EGFR were detected by 4G10 and anti-Protein C antibodies, respectively, in western blotting.
In the assay, EGFR-transfected HEK293T cells were treated with PDCy3 at different concentrations for 10 minutes in the presence or absence of 10 nM EGF. The expression and phosphorylation levels of EGFR were detected and analyzed by western blotting.

enhancement of PDCy3 binding (fraction of PDCy3-bound cells) by V924R mutation (EGFR V924R): 8% | population (fraction) of PDCy3-bound, EGFR positive cells (EGFR L834R): 65.9% | concentration at which EGFR kinase activity was completely inhibited (EGFR; presence and absence of 10 nM EGF, western blotting): 20 µM
Structure (SMILES): CN1/C(=C/C=C/C2=[N+](CCCCCC(=O)NCCC/C=C/C(=O)Nc3ccc4ncnc(Nc5cccc(Br)c5)c4c3)c3ccc(S(=O)(=O)O)cc3C2(C)C)C(C)(C)c2cc(S(=O)(=O)[O-])ccc21 [PDCy3, 1-(6-((E)-6-(4-(3-bromophenylamino)quinazolin-6-ylamino)-6-oxohex-4-enylamino)-6-oxohexyl)-3,3-dimethyl-2-((1E,3E)-3-(1,3,3-trimethyl-5-sulfonatoindolin-2-ylidene)prop-1-enyl)-3H-indolium-5-sulfonate]
mock transfected cells labelled by PDCy3 ([1]; 1 μM PDCy3): 1.4% | EGFR negative cells labelled by PDCy3 ([1]; 1 μM PDCy3, transfected, EGFR-negative cells): 6.7% | PDCy3 concentration at which mock transfected or EGFR-negative cells are labelled non-specifically ([1]; as printed in Example 2): ≥ 5 µM | PDCy3 concentration at which mock transfected or EGFR-negative cells are labelled non-specifically ([1]; as printed in Example 3): ≥ 5 µM | inhibition of EGFR kinase activity (in words) (EGFR; different concentrations): inhibit the kinase activity of EGFR in a dose dependent manner
